Measurements as given in patent publication EP0081312A2, “Antibiotics, their preparation and use” (BEECHAM GROUP PLC, priority 1981, dated 1983).
Values after ≈ are worked out from the molar mass of the structure shown. Read-outs that look alike come from different tables or passages of the source.

Tests used:
Assay in all cases: MIC, concentration required to inhibit growth of bacteria
Type in all cases: cell-based
[1] = system: Citrobacter freundii Ei
[2] = system: Enterobacter cloacae N1
[3] = system: Escherichia coli 0111
[4] = system: Escherichia coli JT39
[5] = system: Klebsiella aerogenes A
[6] = system: Proteus mirabilis C977
[7] = system: Proteus morganii 1580; details: Morganella morganii
[8] = system: Proteus rettgeri WM16; details: Providencia rettgeri
[9] = system: Proteus vulgaris WO91
[10] = system: Pseudomonas aeruginosa A
[11] = system: Salmonella typhirmurium CT10
[12] = system: Serratia marcescens US20
[13] = system: Shigella sonnei MB 11967; details: MB11967
[14] = system: Bacillus Subtilis A
[15] = system: Staphylococcus aureux Oxford
[16] = system: Staphylococcus aureus Russell
[17] = system: Staphylococcus aureus 1517
[18] = system: Streptococcus faecalis I; details: Enterococcus faecalis
[19] = system: Escherichia coli ESS
[20] = system: Streptococcus pyogenes CN10
[21] = system: Streptococcus pneumoniae CN33
[22] = Citrobacter freundii Ei, read-out: MIC
[23] = Klebsiella aerogenes A, read-out: MIC
[24] = Proteus morganii 1580, read-out: MIC
[25] = Proteus rettgeri WM16, read-out: MIC
[26] = Pseudomonas aeruginosa A, read-out: MIC
[27] = Bacillus Subtilis A, read-out: MIC
[28] = Staphylococcus aureux Oxford, read-out: MIC
[29] = Staphylococcus aureus Russell, read-out: MIC
[30] = Streptococcus faecalis I, read-out: MIC

| SMILES | MIC [3] | MIC [11] | MIC [13] | MIC [19] | MIC ([1]; Citrobacter freundii) | MIC [2] | MIC [4] | MIC ([5]; Klebsiella aerogenes) | MIC [6] | MIC [7]; 1580 | MIC ([8]; WM16) | MIC [9] | MIC ([10]; Pseudomonas aeruginosa) | MIC [12] | MIC ([14]; Bacillus subtilis) | MIC ([15]; Staphylococcus) | MIC ([16]; Staphylococcus aureus) | MIC [17] | MIC [18] | MIC [20] | further results |
| --- | --- | --- | --- | --- | --- | --- | --- | --- | --- | --- | --- | --- | --- | --- | --- | --- | --- | --- | --- | --- | --- |
| C[C@H](O)[C@@H]1C(=O)N2C(C(=O)O)=C(S/C=C\C(=O)N(C(=O)NC3CCCCC3)C3CCCCC3)C[C@H]12 [Example 1] | 25 µg/mL (≈ 49.4 µM) | 25 µg/mL (≈ 49.4 µM) | 25 µg/mL (≈ 49.4 µM) | 1.6 µg/mL (≈ 3.16 µM) |  |  |  |  |  |  |  |  |  |  |  |  |  |  |  |  | MIC [1, 22]: 12.5 µg/mL (≈ 24.7 µM); MIC ([2]; read-out: MIC): 50 µg/mL (≈ 98.9 µM); MIC ([4]; read-out: MIC): 50 µg/mL (≈ 98.9 µM); MIC [5, 23]: 25 µg/mL (≈ 49.4 µM); MIC ([6]; read-out: MIC): 50 µg/mL (≈ 98.9 µM); MIC [7, 24]: 25 µg/mL (≈ 49.4 µM); MIC [8, 25]: 50 µg/mL (≈ 98.9 µM); MIC ([9]; read-out: MIC): 25 µg/mL (≈ 49.4 µM); MIC [10, 26]: > 100 µg/mL; MIC ([12]; read-out: MIC): 25 µg/mL (≈ 49.4 µM); MIC [14, 27]: ≤ 0.1 µg/mL; MIC [15, 28]: 0.4 µg/mL (≈ 0.791 µM); MIC [16, 29]: 0.8 µg/mL (≈ 1.58 µM); MIC ([17]; read-out: MIC): 6.2 µg/mL (≈ 12.3 µM); MIC [18, 30]: 0.8 µg/mL (≈ 1.58 µM) |
| C[C@H](O)[C@@H]1C(=O)N2C(C(=O)[O-])=C(S/C=C\C(=O)NCc3ccccc3)C[C@H]12.[Na+] [Example 2, Sodium (5R,6R)-3-[(Z)-2 benzylaminocarbonylethenylthio]-6-[(S)-1-hydroxyethyl]-7-oxo-1-azabicyclo[3.2.0]hept-2-ene-2-carboxylate] | 0.2 µg/mL | ≤ 0.1 µg/mL | ≤ 0.1 µg/mL | ≤ 0.1 µg/mL | ≤ 0.1 µg/mL | 0.2 µg/mL | 0.2 µg/mL | 0.2 µg/mL | ≤ 0.1 µg/mL | 0.8 µg/mL | 0.4 µg/mL | 0.2 µg/mL | 25 µg/mL | 0.4 µg/mL | ≤ 0.1 µg/mL | ≤ 0.1 µg/mL | ≤ 0.1 µg/mL | 1.6 µg/mL | 0.2 µg/mL | ≤ 0.1 µg/mL |  |
| C[C@@H](OC=O)[C@H]1C(=O)N2C(C(=O)[O-])=C(S/C=C\C(=O)NCc3ccccc3)C[C@H]12.[Na+] [Example 3, Sodium (5R,6S)-3-[(Z)-2-benzylaminocarbonylethenylthio]-6-[(R)-1-formyloxyethyl]-7-oxo-1-azabicyclo[3.2.0]hept-2-ene-2-carboxylate] | 0.8 µg/mL | 0.4 µg/mL | 1.6 µg/mL | 0.4 µg/mL | 3.1 µg/mL | 3.1 µg/mL | 0.4 µg/mL | 0.4 µg/mL | 1.6 µg/mL | 6.2 µg/mL | 3.1 µg/mL | 0.4 µg/mL | 50 µg/mL | 3.1 µg/mL | ≤ 0.1 µg/mL | ≤ 0.1 µg/mL |  | 3.1 µg/mL | 0.8 µg/mL | 0.8 µg/mL | MIC [21]: 0.8 µg/mL |
| C[C@@H](O)[C@H]1C(=O)N2C(C(=O)O)=C(S/C=C\C(=O)NCc3ccccc3)C[C@H]12 [Example 4, Sodium (5R,6S)-3-[(Z)-2 benzylaminocarbonylethenylthio]-6-[(R)-1-hydroxyethyl]-7-oxo-1-azabicyclo[3.2.0]hept-2-ene-2-carboxylate.] | 0.2 µg/mL | 0.2 µg/mL | 0.4 µg/mL | ≤ 0.1 µg/mL |  |  |  |  |  |  |  |  |  |  |  |  |  |  |  |  | MIC [1, 22]: 0.8 µg/mL; MIC ([2]; read-out: MIC): 1.6 µg/mL; MIC ([4]; read-out: MIC): ≤ 0.1 µg/mL; MIC [5, 23]: ≤ 0.1 µg/mL; MIC ([6]; read-out: MIC): 0.8 µg/mL; MIC [7, 24]: 1.6 µg/mL; MIC [8, 25]: 3.1 µg/mL; MIC ([9]; read-out: MIC): 0.4 µg/mL; MIC [10, 26]: 50 µg/mL; MIC ([12]; read-out: MIC): 0.8 µg/mL; MIC [14, 27]: ≤ 0.1 µg/mL; MIC [15, 28]: ≤ 0.1 µg/mL; MIC [16, 29]: ≤ 0.1 µg/mL; MIC ([17]; read-out: MIC): 6.2 µg/mL; MIC [18, 30]: 0.4 µg/mL; MIC ([21]; read-out: MIC): ≤ 0.1 µg/mL; MIC ([20]; read-out: MIC): ≤ 0.1 µg/mL |
| CC(O)C1C(=O)N2C(C(=O)[O-])=C(S/C=C/C(N)=O)CC12.[Na+] (stereo not shown) [Example 5, Sodium 3-[E-2-carbamoylethenylthio]-6-[1-hydroxyethyl]-7-oxo-1-azabicyclo[3.2.0]hept-2-ene-2-carboxylate] | 0.4 µg/mL | 1.6 µg/mL | 1.6 µg/mL | 0.4 µg/mL | 1.6 µg/mL | 1.6 µg/mL | 0.8 µg/mL | 1.6 µg/mL | 3.1 µg/mL | 6.2 µg/mL | 6.2 µg/mL | 6.2 µg/mL | > 100 µg/mL | 3.1 µg/mL | 0.2 µg/mL | 0.8 µg/mL | 1.6 µg/mL | 50 µg/mL | 6.2 µg/mL | 0.2 µg/mL | MIC [21]: ≤ 0.1 µg/mL |
| CC(O)C1C(=O)N2C(C(=O)[O-])=C(S/C=C\C(N)=O)CC12.[Na+] (stereo not shown) [Example 6, Sodium 3-[Z-2-carbamoylethenylthio]-6-[1-hydroxyethyl]-7-oxo-1-azabicyclo[3.2.0]hept-2-ene-2-carboxylate] | 6.2 µg/mL | 6.2 µg/mL | 12.5 µg/mL | 3.1 µg/mL | 50 µg/mL | 25 µg/mL | 12.5 µg/mL | 6.2 µg/mL | 50 µg/mL | 50 µg/mL | 50 µg/mL | 25 µg/mL | > 100 µg/mL | 12.5 µg/mL | 1.6 µg/mL | 1.6 µg/mL | 3.1 µg/mL | 100 µg/mL | 50 µg/mL | 3.1 µg/mL |  |
